We go through nine compounds from PubChem BioAssay (NCI).

Some test systems named below: ACHN renal; CCRF-CEM leukemia; HCT-15 colon; HOP-62 NSCLC; HT29 colon; NCI-H460 lung; NCI-H522 lung; SK-MEL-28 melanoma; SK-MEL-5 melanoma; SN12C renal; SNB-75 CNS; SR leukemia; UACC-62 melanoma; A498 renal; EKVX NSCLC; MCF7 breast; MDA-MB-231 breast; MDA-MB-435; T-47D breast.
Holding throughout (assay): NCI anticancer screen, dose series, 48 h

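Cultured in 96-well plates, cells were exposed to test compound for 48 hours across five concentrations. The concentration for full growth arrest is given as TGI.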

For the compound `CC(=O)c1c(O)ccc2c1CC(CC=O)O2` (stereo not given), the TGI in the assay on ACHN renal, in the assay with CCRF-CEM leukemia, in the assay with HCT-15 colon, in the assay with HOP-62 NSCLC, with HT29 colon and in the assay with NCI-H460 lung was above 100 µM throughout. For the same compound, the TGI in the assay on NCI-H522 lung, in the assay on SK-MEL-28 melanoma, with SK-MEL-5 melanoma, with SN12C renal, in the assay on SNB-75 CNS and in the assay on SR leukemia was above 100 µM each time. The compound further returned a TGI in the assay on UACC-62 melanoma above 100 µM.

Take `COc1ccc(C2CCC(Cl)(OC)CC2C=O)cc1` (stereo not given): the TGI in the assay with A498 renal, with ACHN renal, in the assay on CCRF-CEM leukemia, in the assay on EKVX NSCLC, in the assay with HCT-15 colon and in the assay on HOP-62 NSCLC was above 100 µM each time. In addition, the TGI with HT29 colon, in the assay with NCI-H460 lung, in the assay on NCI-H522 lung, with SK-MEL-28 melanoma, in the assay on SK-MEL-5 melanoma and in the assay with SN12C renal was above 100 µM each time. The TGI in the assay on SNB-75 CNS, in the assay on SR leukemia and in the assay on UACC-62 melanoma was above 100 µM throughout.

In the case of `Cc1nccc2c1cnc1ccnn12`, the TGI with A498 renal, with ACHN renal, in the assay with CCRF-CEM leukemia, with EKVX NSCLC, with HCT-15 colon and in the assay on HOP-62 NSCLC was above 100 µM in each case. Moreover, the TGI in the assay with HT29 colon, in the assay with NCI-H460 lung, in the assay on NCI-H522 lung, in the assay on SK-MEL-28 melanoma, in the assay on SK-MEL-5 melanoma and in the assay with SN12C renal was above 100 µM in each case. The TGI in the assay with SNB-75 CNS and in the assay with SR leukemia was above 100 µM throughout.

As to `NC(=O)c1csc(CCCCCCc2nc(C(N)=O)cs2)n1`, the TGI in the assay on A498 renal was above 100 µM; with ACHN renal, above 100 µM; with CCRF-CEM leukemia, above 62.4 µM; with EKVX NSCLC it was above 100 µM; with HCT-15 colon, above 100 µM; in the assay with HOP-62 NSCLC it was above 100 µM. Besides, the TGI with HT29 colon was above 59.8 µM; in the assay on NCI-H460 lung it was above 100 µM; with NCI-H522 lung, above 100 µM; in the assay with SK-MEL-28 melanoma, above 100 µM; in the assay on SK-MEL-5 melanoma, above 100 µM; with SN12C renal, above 100 µM. The TGI in the assay with SNB-75 CNS, in the assay with SR leukemia and in the assay on UACC-62 melanoma was above 100 µM throughout.

In the case of `COc1ccc(/C=C2\N=C(c3ccccc3)N(Nc3nnc(NN4C(=O)/C(=C/c5ccc(OC)cc5)N=C4c4ccccc4)c4ccccc34)C2=O)cc1`, the TGI in the assay with A498 renal, in the assay on ACHN renal, in the assay on CCRF-CEM leukemia, in the assay on EKVX NSCLC, in the assay with HCT-15 colon and with HOP-62 NSCLC was above 100 µM throughout. For the same compound, the TGI with HT29 colon, with NCI-H460 lung, with NCI-H522 lung, in the assay on SK-MEL-28 melanoma, with SK-MEL-5 melanoma and in the assay with SN12C renal was above 100 µM throughout. In addition, the TGI with SNB-75 CNS is above 100 µM; in the assay with SR leukemia, 90.5 µM; with UACC-62 melanoma, above 100 µM.

As to `CN(C)CCCSc1c2ccccc2nc2cc(NCC(=O)Nc3ccccc3-c3ccccc3NC(=O)CNc3ccc4c(SCCCN(C)C)c5ccccc5nc4c3)ccc12`, the TGI was above 100 µM in the assay on A498 renal; above 100 µM with ACHN renal; 92.7 µM with CCRF-CEM leukemia; above 100 µM in the assay on EKVX NSCLC; above 100 µM in the assay on HCT-15 colon; above 100 µM with HOP-62 NSCLC. Moreover, the TGI with HT29 colon, in the assay on NCI-H460 lung, in the assay with NCI-H522 lung, in the assay with SK-MEL-28 melanoma, in the assay with SK-MEL-5 melanoma and in the assay on SN12C renal was above 100 µM in each case. The TGI with SNB-75 CNS, with SR leukemia and in the assay with UACC-62 melanoma was above 100 µM throughout.

Turning to `COC(=O)[C@H]1C=C[C@@H](C)n2c(=O)c3ccccc3c(=O)n21`, the TGI with A498 renal, with ACHN renal, in the assay on CCRF-CEM leukemia, in the assay on EKVX NSCLC, in the assay on HCT-15 colon and in the assay with HOP-62 NSCLC was above 100 µM in each case. The TGI in the assay on HT29 colon, in the assay on NCI-H460 lung, in the assay with NCI-H522 lung, in the assay on SK-MEL-28 melanoma, in the assay with SK-MEL-5 melanoma and in the assay with SN12C renal was above 100 µM each time. The TGI with SNB-75 CNS and with SR leukemia was above 100 µM each time.

Take `NC(=O)C(=CN1C(=O)CC(=O)NC1=S)C(N)=O`: the TGI in the assay on A498 renal, in the assay with ACHN renal, in the assay on EKVX NSCLC, with HCT-15 colon, with HOP-62 NSCLC and with HT29 colon was above 100 µM each time. For the same compound, the TGI with MCF7 breast, in the assay with MDA-MB-231 breast, in the assay on MDA-MB-435, in the assay on NCI-H460 lung, in the assay with SK-MEL-28 melanoma and in the assay with SK-MEL-5 melanoma was above 100 µM each time. Also, the TGI with SN12C renal, with SNB-75 CNS and with T-47D breast was above 100 µM in each case.

Consider `COC1=CC(C2c3cc4c(cc3[C@@H](Nc3ccc([N+](=O)[O-])cc3)C3COC(=O)[C@H]23)OCO4)=CC(=O)C1=O` (stereo not given in full), for which the TGI is 6.23 µM in the assay with A498 renal; 4.43 µM in the assay with ACHN renal; above 25.3 µM with CCRF-CEM leukemia; above 95.2 µM with EKVX NSCLC; 34.1 µM in the assay on HCT-15 colon; 2.47 µM in the assay on HOP-62 NSCLC. Besides, the TGI in the assay with HT29 colon is 35.8 µM; in the assay with NCI-H460 lung, 7.08 µM; with NCI-H522 lung it was 13.4 µM; in the assay on SK-MEL-28 melanoma, above 94.8 µM; in the assay with SK-MEL-5 melanoma it was 19.9 µM; in the assay on SN12C renal, 7.59 µM. Also, the TGI was 16 µM in the assay on SNB-75 CNS and 8.96 µM in the assay on UACC-62 melanoma.
